Data on 15 molecules can be found in patent US20240391940A1, “FUSED RING-CONTAINING COMPOUND, APPLICATION THEREOF, AND COMPOSITION CONTAINING SAME” (GenEros Biopharma Ltd., priority 2020, published 2024).

For one data set, the system named is female BALB/c mice. Nature of the data set: Toxicity, multiple administrations for 14 days in mice. In kind it is in vivo. Also noted: Changes in body weight of the mice in the toxicity test (group mean) / Changes in body weight of the mice in the toxicity test: unit not given here. The procedure: • Part I: Single administration. A total of 6 mice were used. They were randomly divided into 2 groups: the vehicle control and GEN1-284s (1000 mg/kg), dosed once by oral gavage and observed for 6 days, and changes in body weight and activities were recorded. • Part II: Multiple administrations. This experiment used a total of 6 mice. They were divided into two groups of 3: a GEN1-284s-1000 mg/kg group and a GEN1-284s-300 mg/kg group, and were intragastrically given GEN1-284s for 14 consecutive days at 200 μL each. The state and survival of the mice were observed every day, and their body weights were recorded. Two mice died 2 h after GEN1-284s-1000 mg/kg administration. The dose was changed to 600 mg/kg, and the experiment was continued.
This experiment used a total of 6 mice. They were divided into two groups of 3: a GEN1-284s-1000 mg/kg group and a GEN1-284s-300 mg/kg group, and were intragastrically given GEN1-284s for 14 consecutive days at 200 μL each. The state and survival of the mice were observed every day, and their body weights were recorded. Two mice died 2 h after GEN1-284s-1000 mg/kg administration. The dose was changed to 600 mg/kg, and the experiment was continued.
Each mouse was intragastrically administered GEN1-284s for 14 consecutive days in a volume of 200 μL/20 g. The state and survival of the mice were observed every day, and their body weights were recorded. Two mice died 2 h after GEN1-284s-1000 mg/kg administration. The dose was changed to 600 mg/kg, and the experiment was continued.
Changes in body weight and survival of the mice were observed during 6 days after the single administration, and changes in body weight and the survival of the mice were observed during 14 consecutive days of high-dose GEN1-284s administration.

The subject of data set [1] is STAT5 Y694 phosphorylation. Nature of the data set: HTRF experiment: STAT5 Y694 phosphorylation in Hela cells. In kind it is cell-based, Human. Conditions: for Inhibition rate @10 μM: 10 μM compound, 2 h pretreatment, interferon stimulation 30 min. The procedure:
A multifunctional microplate reader (TECAN; […] F PLEX); 96-well cell culture plates (Bioyong), HTRF 384-well low volume plates (Cisbio; Cat #66PL384025); Human interferon 0 (IFN-0) (GenScript; Cat #P01574), STAT5 phospho-Y694 kits (Cisbio; Cat #64AT5PEG).
Hela cells (American Type Culture Collection (ATCC), CCL-2) were cultured in a 96-well plate with DMEM containing 5% fetal bovine serum at a density of 3×10^4 cells/well. The cells were incubated overnight in a 37° C., 5% carbon dioxide humidified incubator. The next day, the original DMEM in the 96-well plate was blotted, and equal volumes of medium containing different concentrations of compounds (stock solutions of compounds prepared with dimethyl sulfoxide were diluted to desired concentrations in medium) were added for 2 h of pretreatment. The plate was left to stand in a 37° C. incubator. Human interferon 0 was then added to a final concentration of 10 nM for stimulation. The plate was gently shaken so the contents were well mixed, and the plate was then left to stand in a 37° C. incubator for 30 min.
The medium was removed, and the plate was washed once with an appropriate volume of PBS and then blotted dry. Then 1×lysis buffer was added at 40 μL/well, and the plate was left to stand at room temperature for 30 min (preparation of 1 mL of 1× lysis buffer: mixing well 740 μL of ddH2O with 250 μL of 4× lysis buffer and […]). After 30 min, the cells were repeatedly pipetted until the lysis buffer was not viscous (bubbles were avoided) so that sufficient lysis was achieved.
In an HTRF 384-well low volume plate, 4 μL of an antibody premix (containing two antibodies: Cryptate and d2: the two antibodies were each 20-fold diluted with detection buffer and were then mixed in equal volume to form the antibody premix) and 16 μL of the cell lysate were added to each well. The plate was sealed with a sealing membrane and then incubated overnight at room temperature in a dark place.
After the overnight incubation, signals at 665 nm and 620 nm were detected separately on a multifunctional microplate reader. The calculation formula for the STAT5 Y694 phosphorylation assay is: Ratio=[(signal 665 nm)/(signal 620 nm)]×10^4. A dimethyl sulfoxide-only treatment group was set as a negative control (RatioNegative), and an interferon 0 stimulation group without compound addition was set as a positive control (RatioPositive). The inhibition rates of different samples against STAT5 Y694 phosphorylation were normalized: inhibition rate=[1−(RatioExperiment−RatioNegative)/(RatioPositive−RatioNegative)]×100.
On the technique in general: Time-resolved FRET reads energy transfer from a long-lived donor to a nearby acceptor.

The IC50 is the point on the concentration scale where inhibition reaches its midpoint.

As for `O=C(Cc1ccc2ncccc2c1)N1CCC(n2c(=O)n(COP(=O)([O-])[O-])c3cccc(C(F)(F)F)c32)CC1.[Na+].[Na+]` [Compound 284s], the “Changes in body weight of the mice in the toxicity test (group mean)” value (shortened to “Changes in body weight … (group mean)”) in the data set with female BALB/c mice (300 mg/kg P.O daily, Day 1) came out at 16.97; with female BALB/c mice (300 mg/kg P.O daily, Day 2), 16.93; in the data set on female BALB/c mice (300 mg/kg P.O daily, Day 3), 16.87; in the data set with female BALB/c mice (300 mg/kg P.O daily, Day 4) it was 17.17; in the data set on female BALB/c mice (300 mg/kg P.O daily, Day 5) it was 17.17; with female BALB/c mice (300 mg/kg P.O daily, Day 6), 17.23. The “Changes in body weight … (group mean)” value was 17.47 with female BALB/c mice (300 mg/kg P.O daily, Day 8); 17.17 in the data set on female BALB/c mice (300 mg/kg P.O daily, Day 9); 17.1 in the data set on female BALB/c mice (300 mg/kg P.O daily, Day 10); 17.3 in the data set on female BALB/c mice (300 mg/kg P.O daily, Day 11); 17.23 with female BALB/c mice (300 mg/kg P.O daily, Day 12); 17.47 with female BALB/c mice (300 mg/kg P.O daily, Day 13). The “Changes in body weight … (group mean)” value in the data set with female BALB/c mice (300 mg/kg P.O daily, Day 14) is reported as 17.47; in the data set with female BALB/c mice (600 mg/kg group (1000 mg/kg, changed to 600 mg/kg on day 2) P.O daily, Day 1), 17.37. Besides, the “Changes in body weight of the mice in the toxicity test” value is recorded as 16.9 in the data set with female BALB/c mice (600 mg/kg group (1000 mg/kg, changed to 600 mg/kg on day 2) P.O daily, Day 2); 17.3 in the data set with female BALB/c mice (600 mg/kg group (1000 mg/kg, changed to 600 mg/kg on day 2) P.O daily, Day 3); 17.3 with female BALB/c mice (600 mg/kg group (1000 mg/kg, changed to 600 mg/kg on day 2) P.O daily, Day 4).

With `O=C(Cc1ccc2[nH]ccc2c1)N1CCC(n2c(=O)[nH]c3ccccc32)CC1` [GEN1-077, 3-[1-[2-(1H-Indol-5-yl)acetyl]-4-piperidinyl]-1H-benzimidazol-2-one], the “Inhibition rate @10 μM” value in data set [1] worked out at 34.25%.

As to `CN(C)c1ccc(CC(=O)N2CCC(n3c(=O)[nH]c4cccc(C(F)(F)F)c43)CC2)cc1` [GEN1-118, 1-(1-(2-(4-(Dimethylamino)phenyl)acetyl)piperidin-4-yl)-7-(trifluoromethyl)-1,3-dihydro-2H-benzo[d]imidazol-2-one], the “Inhibition rate @10 μM” value in data set [1] came out at 27.57%.

`O=C(Cc1ccc2nccnc2c1)N1CCC(n2c(=O)[nH]c3cccc(C(F)(F)F)c32)CC1` [GEN1-140, 1-(1-(2-(Quinoxalin-6-yl)acetyl)piperidin-4-yl)-7-(trifluoromethyl)-1,3-dihydro-2H-benzo[d]imidazol-2-one]: the “Inhibition rate @10 μM” value in data set [1] came to 53.79%.

For `O=C(Cc1c[nH]c2ccccc12)N1CCC(n2c(=O)[nH]c3cccc(C(F)(F)F)c32)CC1` [GEN1-169, reference compound], the “Inhibition rate @10 μM” value in data set [1] stood at 13.47%.

As for `O=C(Cc1ccc2ncccc2c1)N1CCC(n2c(=O)n(COP(=O)(O)O)c3cccc(C(F)(F)F)c32)CC1` [GEN1-284, (2-Oxo-3-(1-(2-(quinolin-6-yl)acetyl)piperidin-4-yl)-4-(trifluoromethyl)-2,3-dihydro-1H-benzo[d]imidazol-1-yl)methyl dihydrogen phosphate], in data set [1], 3.9 µM corresponded to half-maximal inhibition (IC50) and the “Inhibition rate @10 μM” value amounted to 80.21%.

Turning to `O=C(Cc1ccc2sccc2c1)N1CCC(n2c(=O)[nH]c3cccc(C(F)(F)F)c32)CC1` [GEN1-298, 1-(1-(2-(Benzo[b]thiophen-5-yl)acetyl)piperidin-4-yl)-7-(trifluoromethyl)-1,3-dihydro-2H-benzo[d]imidazol-2-one], the “Inhibition rate @10 μM” value in data set [1] is on record as 51.98%.

Consider `Cc1ccc2cc(CC(=O)N3CCC(n4c(=O)[nH]c5cccc(C(F)(F)F)c54)CC3)ccc2n1` [GEN1-300], for which, in data set [1], inhibition was half-maximal at 7.6 µM (IC50) and the “Inhibition rate @10 μM” value came to 72.83%.

Turning to `O=C(Cc1ccc2nccc(Cl)c2c1)N1CCC(n2c(=O)[nH]c3cccc(C(F)(F)F)c32)CC1` [GEN1-301, 1-(1-(2-(4-Chloroquinolin-6-yl)acetyl)piperidin-4-yl)-7-(trifluoromethyl)-1,3-dihydro-2H-benzo[d]imidazol-2-one], in data set [1], it took 8.8 µM to reach half-maximal inhibition (IC50) and the “Inhibition rate @10 μM” value was 80.70%.

With `O=C(Cc1ccc2nc(Cl)ccc2c1)N1CCC(n2c(=O)[nH]c3cccc(C(F)(F)F)c32)CC1` [GEN1-302, 1-(1-(2-(2-Chloroquinolin-6-yl)acetyl)piperidin-4-yl)-7-(trifluoromethyl)-1,3-dihydro-2H-benzo[d]imidazol-2-one], in data set [1], half-maximal inhibition (IC50) was put at 7 µM and the “Inhibition rate @10 μM” value was 80.37%.

With `Cc1cc(CC(=O)N2CCC(n3c(=O)[nH]c4cccc(C(F)(F)F)c43)CC2)cc2cccnc12` [GEN1-303, 1-(1-(2-(8-Methylquinolin-6-yl)acetyl)piperidin-4-yl)-7-(trifluoromethyl)-1,3-dihydro-2H-benzo[d]imidazol-2-one], in data set [1], the midpoint of inhibition, the IC50, lay at 5.5 µM and the “Inhibition rate @10 μM” value was 91.91%.

As for `N#Cc1ccnc2ccc(CC(=O)N3CCC(n4c(=O)[nH]c5cccc(C(F)(F)F)c54)CC3)cc12` [GEN1-304, 6-(2-Oxo-2-(4-(2-oxo-7-(trifluoromethyl)-2,3-dihydro-1H-benzo[d]imidazol-1-yl)piperidin-1-yl)ethyl)quinoline-4-carbonitrile], in data set [1], the “Inhibition rate @10 μM” value was determined as 40.76%.

As for `COc1ccc2cc(CC(=O)N3CCC(n4c(=O)[nH]c5cccc(C(F)(F)F)c54)CC3)ccc2n1` [GEN1-305], the “Inhibition rate @10 μM” value in data set [1] is reported as 63.05%.

Take `O=C(Cc1ccc2ncccc2c1Cl)N1CCC(n2c(=O)[nH]c3cccc(C(F)(F)F)c32)CC1` [GEN1-306, 1-(1-(2-(5-Chloroquinolin-6-yl)acetyl)piperidin-4-yl)-7-(trifluoromethyl)-1,3-dihydro-2H-benzo[d]imidazol-2-one]: the “Inhibition rate @10 μM” value in data set [1] came to 95.64%.

For the molecule `O=C(Cc1ccc2ncc(C(F)(F)F)cc2c1)N1CCC(n2c(=O)[nH]c3cccc(C(F)(F)F)c32)CC1` [GEN1-312], the “Inhibition rate @10 μM” value in data set [1] was found to be 55.50%.
